Results taken from patent US9593108B2, “Compounds and methods for antiviral treatment” (PTC Therapeutics, Inc., priority 2009, dated 2017).

Key:
[1] = tested on: HCV replicon RNA (GenBank Accession No. AJ242654); test: HCV Replicon Assay (replicon RNA reduction and/or Fluc reporter signal); type: cell-based, Hepatitis C virus; settings: Hepatitis C virus, 72 h, replicon-containing cells cultured with test compound for up to 3 days
Outline: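 IC50 values mostly reflect the drop in replicon RNA, though Fluc reporter signal may also be used. Compound incubated with cells carrying the bicistronic replicon for as long as 3 days; interferon served as positive control.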

SMILES | IC50 [1] [nM] | melting point [°C]
CSc1cnc2c(c1)c(C#N)c(-c1ccc(S(=O)(=O)N[C@H](C)C(F)(F)F)cn1)n2C1CCCC1 [Cpd 273, 6-[3-cyano-1-cyclopentyl-5-(methylsulfanyl)-1H-pyrrolo[2,3-b]pyridin-2-yl]-N-[(2R)-1,1,1-trifluoropropan-2-yl]pyridine-3-sulfonamide] | < 500 | 124 to 127
CSc1cnc2c(c1)c(C#N)c(-c1ccc(S(=O)(=O)NC3(C(F)(F)F)CC3)cn1)n2C1CCCC1 [Cpd 274, 6-[3-cyano-1-cyclopentyl-5-(methylsulfanyl)-1H-pyrrolo[2,3-b]pyridin-2-yl]-N-[1-(trifluoromethyl)cyclopropyl]pyridine-3-sulfonamide] | < 500 | 200 to 203
C[C@H](NS(=O)(=O)c1ccc(-c2c(C#N)c3cc(O)cnc3n2C2CCC2)nc1)C(F)(F)F [Cpd 275, 6-(3-cyano-1-cyclobutyl-5-hydroxy-1H-pyrrolo[2,3-b]pyridin-2-yl)-N-[(2S)-1,1,1-trifluoropropan-2-yl]pyridine-3-sulfonamide] | < 500 | 240 to 242
CC[C@H](NS(=O)(=O)c1ccc(-c2c(C#N)c3cc(Cl)cnc3n2C2CCC2)nc1)C(F)(F)F [Cpd 276, 6-(5-chloro-3-cyano-1-cyclobutyl-1H-pyrrolo[2,3-b]pyridin-2-yl)-N-[(2S)-1,1,1-trifluorobutan-2-yl]pyridine-3-sulfonamide] | < 500 | 186 to 191
COc1cnc2c(c1)c(C#N)c(-c1cc(C)c(S(=O)(=O)N[C@@H](C)C(F)(F)F)cn1)n2C1CCC1 [Cpd 277, 6-(3-cyano-1-cyclobutyl-5-methoxy-1H-pyrrolo[2,3-b]pyridin-2-yl)-4-methyl-N-[(2S)-1,1,1-trifluoropropan-2-yl]pyridine-3-sulfonamide] | < 500 | 175 to 179
Cc1cc(-c2c(C#N)c3cc(Cl)cnc3n2C2CCCC2)ncc1S(=O)(=O)N[C@@H](C)C(F)(F)F [Cpd 278, 6-(5-chloro-3-cyano-1-cyclopentyl-1H-pyrrolo[2,3-b]pyridin-2-yl)-4-methyl-N-[(2S)-1,1,1-trifluoropropan-2-yl]pyridine-3-sulfonamide] | < 500 | 190 to 195
CC[C@H](NS(=O)(=O)c1ccc(-c2c(C#N)c3cc(C)cnc3n2C2CCC2)nc1)C(F)(F)F [Cpd 279, 6-(3-cyano-1-cyclobutyl-5-methyl-1H-pyrrolo[2,3-b]pyridin-2-yl)-N-[(2S)-1,1,1-trifluorobutan-2-yl]pyridine-3-sulfonamide] | < 500 | 138 to 144
N#Cc1c(-c2ccc(S(=O)(=O)NC3CCC3)cn2)n(C2CCC2)c2ncc(Cl)cc12 [Cpd 283, 6-(5-chloro-3-cyano-1-cyclobutyl-1H-pyrrolo[2,3-b]pyridin-2-yl)-N-cyclobutylpyridine-3-sulfonamide] | < 500 | 178 to 180
C[C@H](NS(=O)(=O)c1cnc(-c2c(C#N)c3cc(Cl)cnc3n2C2CCC2)nc1)C(F)(F)F [Cpd 285, 2-(5-chloro-3-cyano-1-cyclobutyl-1H-pyrrolo[2,3-b]pyridin-2-yl)-N-[(2S)-1,1,1-trifluoropropan-2-yl]pyrimidine-5-sulfonamide] | < 500 | 205 to 207
CC1(NS(=O)(=O)c2cnc(-c3c(C#N)c4cc(Cl)cnc4n3C3CCC3)nc2)CC1 [Cpd 286, 2-(5-chloro-3-cyano-1-cyclobutyl-1H-pyrrolo[2,3-b]pyridin-2-yl)-N-(1-methylcyclopropyl)pyrimidine-5-sulfonamide] | < 500 | 237 to 240
C[C@H](NS(=O)(=O)c1ccc(-c2c(C#N)c3ncc(Cl)cc3n2C2CCCCC2)cc1)C(F)(F)F [Cpd 287, 4-(6-chloro-3-cyano-1-cyclohexyl-1H-pyrrolo[3,2-b]pyridin-2-yl)-N-[(2S)-1,1,1-trifluoropropan-2-yl]benzenesulfonamide] | 500 to 2000 | 300 to 305
CC(C)(C)S(=O)(=O)Nc1ccc(-c2c(C#N)c3ncc(Cl)cc3n2C2CCCCC2)cc1 [Cpd 288, N-[4-(6-chloro-3-cyano-1-cyclohexyl-1H-pyrrolo[3,2-b]pyridin-2-yl)phenyl]-2-methylpropane-2-sulfonamide] | 500 to 2000 | 279 to 283
Cc1cnc2c(c1)c(C#N)c(-c1cc(C)c(S(=O)(=O)N[C@@H](C)C(F)(F)F)cn1)n2C1CCC1 [Cpd 289, 6-(3-cyano-1-cyclobutyl-5-methyl-1H-pyrrolo[2,3-b]pyridin-2-yl)-4-methyl-N-[(2S)-1,1,1-trifluoropropan-2-yl]pyridine-3-sulfonamide] | < 500 | 218 to 223
Cc1cc(S(=O)(=O)N[C@@H](C)C(F)(F)F)cnc1-c1c(C#N)c2cc(Cl)cnc2n1C1CCCC1 [Cpd 290, 6-(5-chloro-3-cyano-1-cyclopentyl-1H-pyrrolo[2,3-b]pyridin-2-yl)-5-methyl-N-[(2S)-1,1,1-trifluoropropan-2-yl]pyridine-3-sulfonamide] | < 500 | 240 to 245
Cc1cnc2c(c1)c(C#N)c(-c1ncc(S(=O)(=O)N[C@@H](C)C(F)(F)F)cc1C)n2C1CCC1 [Cpd 291, 6-(3-cyano-1-cyclobutyl-5-methyl-1H-pyrrolo[2,3-b]pyridin-2-yl)-5-methyl-N-[(2S)-1,1,1-trifluoropropan-2-yl]pyridine-3-sulfonamide] | < 500 | 181 to 185
COc1cnc2c(c1)c(C#N)c(-c1ncc(S(=O)(=O)N[C@@H](C)C(F)(F)F)cc1C)n2C1CCC1 [Cpd 292, 6-(3-cyano-1-cyclobutyl-5-methoxy-1H-pyrrolo[2,3-b]pyridin-2-yl)-5-methyl-N-[(2S)-1,1,1-trifluoropropan-2-yl]pyridine-3-sulfonamide] | < 500 | 180 to 183
Cc1cnc2c(c1)c(C#N)c(-c1ccc(S(=O)(=O)NC(C)(C)C)cn1)n2C1CCC1 [Cpd 293, N-tert-butyl-6-(3-cyano-1-cyclobutyl-5-methyl-1H-pyrrolo[2,3-b]pyridin-2-yl)pyridine-3-sulfonamide] | < 500 | 173 to 175
C[C@H](NS(=O)(=O)c1ccc(-c2c(C#N)c3cc(O)cnc3n2C2CCCC2)nc1)C(F)(F)F [Cpd 294, 6-(3-cyano-1-cyclopentyl-5-hydroxy-1H-pyrrolo[2,3-b]pyridin-2-yl)-N-[(2S)-1,1,1-trifluoropropan-2-yl]pyridine-3-sulfonamide] | < 500 | 221 to 223
C[C@H](NS(=O)(=O)c1ccc(-c2c(C#N)c3cc(C(F)(F)F)cnc3n2CC2CC2)nc1)C(F)(F)F [Cpd 295, 6-[3-cyano-1-(cyclopropylmethyl)-5-(trifluoromethyl)-1H-pyrrolo[2,3-b]pyridin-2-yl]-N-[(2S)-1,1,1-trifluoropropan-2-yl]pyridine-3-sulfonamide] | < 500 | 193 to 195
CC(C)(C)NS(=O)(=O)c1ccc(-c2c(C#N)c3cc(C(F)(F)F)cnc3n2CC2CC2)nc1 [Cpd 296, N-tert-butyl-6-[3-cyano-1-(cyclopropylmethyl)-5-(trifluoromethyl)-1H-pyrrolo[2,3-b]pyridin-2-yl]pyridine-3-sulfonamide] | < 500 | 179 to 180
CC(C)(C)NS(=O)(=O)c1ccc(-c2c(C#N)c3cc(C(F)(F)F)cnc3n2C2CCC2)nc1 [Cpd 297, N-tert-butyl-6-[3-cyano-1-cyclobutyl-5-(trifluoromethyl)-1H-pyrrolo[2,3-b]pyridin-2-yl]pyridine-3-sulfonamide] | < 500 | 176 to 178
Cc1cc(-c2c(C#N)c3cc(C(F)(F)F)cnc3n2C2CCC2)ncc1S(=O)(=O)N[C@@H](C)C(F)(F)F [Cpd 298, 6-[3-cyano-1-cyclobutyl-5-(trifluoromethyl)-1H-pyrrolo[2,3-b]pyridin-2-yl]-4-methyl-N-[(2S)-1,1,1-trifluoropropan-2-yl]pyridine-3-sulfonamide] | < 500 | 166 to 171
Cc1cnc2c(c1)c(C#N)c(-c1cccc(NS(=O)(=O)C(C)C)c1)n2C1CCC1 [Cpd 299, N-[3-(3-cyano-1-cyclobutyl-5-methyl-1H-pyrrolo[2,3-b]pyridin-2-yl)phenyl]propane-2-sulfonamide] | 2000 to 5000 | 166 to 173
C[C@H](NS(=O)(=O)c1ccc(-c2c(C#N)c3cc(C(F)(F)F)cnc3n2C2CCC2)cc1)C(F)(F)F [Cpd 300, 4-[3-cyano-1-cyclobutyl-5-(trifluoromethyl)-1H-pyrrolo[2,3-b]pyridin-2-yl]-N-[(2S)-1,1,1-trifluoropropan-2-yl]benzenesulfonamide] | < 500 | 218 to 220
Cc1cc(S(=O)(=O)N[C@@H](C)C(F)(F)F)cnc1-c1c(C#N)c2cc(C(F)(F)F)cnc2n1C1CCC1 [Cpd 301, 6-[3-cyano-1-cyclobutyl-5-(trifluoromethyl)-1H-pyrrolo[2,3-b]pyridin-2-yl]-5-methyl-N-[(2S)-1,1,1-trifluoropropan-2-yl]pyridine-3-sulfonamide] | < 500 | 190 to 194
N#Cc1c(-c2ccc(S(=O)(=O)NC3CCC3)cn2)n(C2CCC2)c2ncc(C(F)(F)F)cc12 [Cpd 302, 6-[3-cyano-1-cyclobutyl-5-(trifluoromethyl)-1H-pyrrolo[2,3-b]pyridin-2-yl]-N-cyclobutylpyridine-3-sulfonamide] | < 500 | 197 to 199
C[C@H](NS(=O)(=O)c1ccc(-c2c(C#N)c3cc(C(F)(F)F)cnc3n2-c2ncccn2)nc1)C(F)(F)F [Cpd 303, 6-[3-cyano-1-(pyrimidin-2-yl)-5-(trifluoromethyl)-1H-pyrrolo[2,3-b]pyridin-2-yl]-N-[(2S)-1,1,1-trifluoropropan-2-yl]pyridine-3-sulfonamide] | < 500 | 213 to 215
